Measurements taken from patent publication US9677052B2, “Modified lipopolysaccharide glycoform and method of use” (THE TRUSTEES OF PRINCETON UNIVERSITY, priority 2014, dated 2017).

Experiments:
[1] = Surface plasmon resonance, vancomycin over immobilized purified LPS*; set-up: species or system Escherichia coli; conditions: SPR, Biacore X100, 25° C., LPS* immobilized on CM3 chip, equilibrium signal fit; read-out: Kd, specific binding of vancomycin to LPS*
Protocol: (§1) The ability of purified LPS* to bind vancomycin in vitro was assessed. LPS* was immobilized on a carboxymethylated dextran (CM3) chip and surface plasmon resonance was used to monitor interactions with differing concentrations of vancomycin. […] To test this hypothesis, weperformed live cell microscopy using a fluorescent vancomycin-BODIPY. A wild-type strain background with an intact OM that prevents the influx of vancomycin was used, to avoid labeling intracellular sites of PG synthesis.

[2] = Surface plasmon resonance, vancomycin over reference channel (LPS from waaL+); assay type: binding, Escherichia coli; conditions: SPR, 25° C., different concentrations of vancomycin
Protocol: Purified LPS (0.5 mg/ml) from strains MG1210 or MG1211 were extruded in 20 mMTris/HCl pH 8, 150 mM NaCl and immobilized on poly-L-lysine coated CM3 Biacore chips on the active and reference channel, respectively (Malojcić et al., 2014). All experiments were performed using a Biacore X100 instrument at 25° C. at a flow rate of 10 μl/min with 20 mMTris/HCl pH 8, 150 mM NaCl buffer. Different concentrations of vancomycin were injected for 400 s and dissociation was recorded for another 500 s to return to baseline. […] The equilibrium signal in the difference channel was fitted to f=Bmax*abs(x)/(Kd+abs(x)) with R^2=0.88.

[3] = system: waaL+ cells; conditions: 1 μg/ml vancomycin-BODIPY-FL, 10 min, wild-type background with intact OM
Protocol: (§2) Overnight cultures were sub-cultured at 1:100 into fresh LB broth and grown for 1.5 h. A1 ml aliquot was taken, pelleted and was twice washed with 1 ml M63 medium. Cells were resuspended in 0.1 ml of M63 broth containing 1 μg/ml of vancomycin-BODIPY-FL (LifeTechnologies, V-34850). Cells were incubated at room temperature for 10 min and then washed twice with 1 ml M63 broth. Cells were then resuspended in 0.03 ml of M63 broth, and approximately […] was spotted onto an M63-agarose pad. Cells were immediately visualized on a Nikon Eclipse 90i microscope with a Nikon Plan Apo 1.4/100× Oil Ph3 phase objective.
as §1

[4] = system: waaL15 bacteria; conditions: 1 μg/ml vancomycin-BODIPY-FL, 10 min, wild-type background with intact OM
Protocol: as §2, §1

Molecule | Kd [1] | binding to the reference channel [2] | fluorescent labeling of cells [3] | fluorescent labeling of cells [4]
CN[C@H](CC(C)C)C(=O)N[C@H]1C(=O)N[C@@H](CC(N)=O)C(=O)N[C@H]2C(=O)N[C@H]3C(=O)N[C@H](C(=O)N[C@H](C(=O)O)c4cc(O)cc(O)c4-c4cc3ccc4O)[C@H](O)c3ccc(c(Cl)c3)Oc3cc2cc(c3O[C@@H]2O[C@H](CO)[C@@H](O)[C@H](O)[C@H]2O[C@H]2C[C@](C)(N)[C@H](O)[C@H](C)O2)Oc2ccc(cc2Cl)[C@H]1O [vancomycin] | 480 ± 80 nM | No binding |  | 
vancomycin-BODIPY-FL |  |  | could not be fluorescently labeled | circumferential labeling
